Experimental data as given in ChEMBL document CHEMBL4321884, “Human Serum Albumin Binding in a Vial: A Novel UV-pH Titration Method To Assist Drug Design” (J Med Chem, 2020).

Experiments:
[1] = Protein binding in plasma (unknown origin); assay type: ADME, cell-free; settings: read-out: PPB (converted)
[2] = target: T1, Albumin (Homo sapiens, UniProt P02768); assay: Protein binding in human serum albumin after 4.5 hrs by LC-MS based rapid equilibrium dialysis method; assay type: ADME; settings: read-out: PB (converted)
T1 sequence (P02768 whole entry): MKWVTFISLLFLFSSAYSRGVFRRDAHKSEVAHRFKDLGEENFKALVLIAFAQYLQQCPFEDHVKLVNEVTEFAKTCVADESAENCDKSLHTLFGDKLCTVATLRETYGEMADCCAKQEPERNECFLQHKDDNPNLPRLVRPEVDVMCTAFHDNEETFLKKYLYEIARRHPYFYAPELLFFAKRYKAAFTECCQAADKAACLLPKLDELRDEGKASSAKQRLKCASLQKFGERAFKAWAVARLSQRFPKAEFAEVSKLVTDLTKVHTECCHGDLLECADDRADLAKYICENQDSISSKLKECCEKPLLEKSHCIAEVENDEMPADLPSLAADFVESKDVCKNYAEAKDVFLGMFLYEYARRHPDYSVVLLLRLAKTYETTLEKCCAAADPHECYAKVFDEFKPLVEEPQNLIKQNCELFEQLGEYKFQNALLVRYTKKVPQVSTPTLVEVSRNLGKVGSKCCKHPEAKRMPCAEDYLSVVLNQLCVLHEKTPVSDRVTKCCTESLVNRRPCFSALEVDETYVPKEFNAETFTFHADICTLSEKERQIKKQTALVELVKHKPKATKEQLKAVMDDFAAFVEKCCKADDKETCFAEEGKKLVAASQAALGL

[3] = target: T1, Albumin; assay: Protein binding in immobilized human serum albumin by HPLC analysis; assay type: ADME; settings: read-out: PB (converted)
[4] = target: T1, Albumin; assay: Protein binding in immobilized human serum albumin after 15 mins by HPLC analysis; assay type: ADME; settings: read-out: PB (converted)

Compound | fraction unbound [1] | fraction unbound at 4.5 h [2] | fraction unbound [3] | fraction unbound at 0.25 h [4]
CC1=C(CC(=O)O)c2cc(F)ccc2/C1=C\c1ccc([S+](C)[O-])cc1 (stereo not drawn) | 0.06 to 0.065 | – | – | –
CN1C(C(=O)Nc2ccccn2)=C(O)c2sc(Cl)cc2S1(=O)=O [LORNOXICAM] | – | 0.02 | – | –
CN1C(C(=O)Nc2ccccn2)=C(O)c2ccccc2S1(=O)=O [PIROXICAM] | 0.01 | – | – | –
CN(C)CCCN1c2ccccc2CCc2ccccc21 [IMIPRAMINE] | 0.074 to 0.099 | – | 0.151 | –
CCCCC1(C)C(=O)N(c2ccccc2)N(c2ccccc2)C1=O | – | 0.359 | 0.15 | –
Cc1ncc([N+](=O)[O-])n1CCO [METRONIDAZOLE] | 0.89 to 0.9 | – | – | –
CCOC(=O)c1cc(-c2ccc(F)cc2F)ccc1O | – | – | 0.025 | –
CN1C(C(=O)Nc2ccccn2)=C(O)c2sccc2S1(=O)=O [TENOXICAM] | – | 0.032 | – | –
CCN(CC)CCOC(=O)c1ccc(N)cc1 [PROCAINE] | 0.94 | – | – | 0.64
CC(C)NCC(O)COc1cccc2ccccc12 (stereo not drawn) [PROPRANOLOL] | – | – | 0.375 | –
CO/N=C(\C(=O)N[C@@H]1C(=O)N2C(C(=O)O)=C(COC(N)=O)CS[C@H]12)c1ccco1 [CEFUROXIME] | 0.67 to 0.685 | – | – | –
COC1=C(C(=O)Nc2ncc(C)s2)N(C)S(=O)(=O)c2ccccc21 | – | 0.341 | 0.158 | –
NC(N)=Nc1nc(CSCCC(N)=NS(N)(=O)=O)cs1 [FAMOTIDINE] | 0.8 | 0.956 | 0.749 | –
CCCCc1c(OC)n(-c2ccccc2)n(-c2ccccc2)c1=O | – | 0.071 | 0.071 | –
O=C1CN=C(c2ccccc2)c2cc([N+](=O)[O-])ccc2N1 [NITRAZEPAM] | – | – | 0.233 | –
Cc1cnc(NC(=O)C2=C(O)c3ccccc3S(=O)(=O)N2C)s1 [MELOXICAM] | – | 0.033 | 0.001 | –
COc1cc(Cc2cnc(N)nc2N)cc(OC)c1OC [TRIMETHOPRIM] | 0.585 to 0.625 | 0.969 | 0.627 | –
CNC(=O)Oc1ccc2c(c1)[C@]1(C)CCN(C)[C@@H]1N2C [PHYSOSTIGMINE] | – | 0.903 | 0.8 | –
CCN(CC)CCC[C@H](C)Nc1ccnc2cc(Cl)ccc12 | – | – | 0.495 | –
NNC(=O)c1ccncc1 [ISONIAZID] | 1 | – | 0.891 | 0.932
